Experimental data from patent US11904020B2, “Bicyclic peptide ligands specific for TREM2” (Bicycle Tx Limited, priority 2021, dated 2024).
*1 amine or outer side, *2 acyl side, *3 side chain or, on linkers, in order; H or OH if unused. Where a SMILES comes first, the peptide text is derived from it. Bridges are numbered along the chain shown (N, C = ends). [ ]: non-standard residue; d: D form. TATA = O=C(CC[*:1])N1CN(C(=O)CC[*:2])CN(C(=O)CC[*:3])C1; Bip = N[C@@H](Cc1ccc(-c2ccccc2)cc1)C(=O)O; 1Nal = N[C@@H](Cc1cccc2ccccc12)C(=O)O; tBuAla = CC(C)(C)C[C@H](N)C(=O)O; 4Pal = N[C@@H](Cc1ccncc1)C(=O)O

target: TREM2 extracellular domain (ECD) (residues 19-131, C-terminally biotinylated, deglycosylated or glycosylated) (Homo sapiens, UniProt Q9NZC2); experiment: biochemical; conditions: Human BLI (Kd; nM) (deglycosylated), Table 4A; deglycosylated human TREM2 ECD; steady-state KD, 25° C.
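Note: Bio-layer interferometry in 50 mM HEPES pH 7.5 with 150 mM NaCl and 0.1% Tween, double-referenced with blank wells and unrelated-protein sensors, equilibrium response fitted versus concentration.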
Experimental: Bio-layer interferometry was performed on an Octet RED384® system (Sartorius) at 25° C. in a buffer containing 50 mM HEPES (pH 7.5), 150 mM NaCl and 0.1% Tween. TREM2 extracellular domain (ECD) (residues 19-131, C-terminally biotinylated, deglycosylated or glycosylated) was loaded onto Superstreptavidin biosensors (SSA, 18-5070, Sartorius) at 0.0125 mg/ml for 300 s. Bicycle peptides (10 mM in DMSO) were dispensed into 384-Well Tilted-Bottom Plates (18-5076, Sartorius) using an Echo liquid handler giving a final DMSO concentration of 0.125% in all wells including control wells. Association of defined concentrations of bicyclic peptide (0-12.5 μM, 1:2 dilutions for 7 points) was recorded over 120 s followed by dissociation in buffer over 120 s. Reference wells containing no bicycle peptides and reference sensors loaded with an unrelated protein (His-tagged MLLT3a) were subjected to the same assay protocol and double reference subtraction was used for processing to account for non-specific binding. Traces were analysed using Octet Software (Version 11.0). Association and dissociation curves were globally fit and the response at equilibrium (Req) plotted against concentration to obtain steady-state KD values.

TREM2 extracellular domain (ECD) (residues 19-131, C-terminally biotinylated, deglycosylated or glycosylated), sequence (Q9NZC2 19-131): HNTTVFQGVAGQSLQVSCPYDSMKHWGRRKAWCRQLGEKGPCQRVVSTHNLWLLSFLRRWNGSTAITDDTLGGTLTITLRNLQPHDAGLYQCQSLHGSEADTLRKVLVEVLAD

SMILES | Kd [nM]
C[C@H](N)C(=O)N[C@H]1CSCCC(=O)N2CN3CN(C2)C(=O)CCSC[C@H](NC(=O)[C@H](Cc2ccc(O)cc2)NC(=O)[C@H](C)NC(=O)[C@H](CO)NC1=O)C(=O)N[C@@H](Cc1ccccc1)C(=O)N[C@@H](Cc1c[nH]c2ccccc12)C(=O)N1CCC[C@H]1C(=O)N[C@@H](Cc1ccccc1)C(=O)N[C@@H](Cc1ccc(O)cc1)C(=O)N[C@@H](Cc1c[nH]cn1)C(=O)N[C@H](C(=O)N[C@@H](C)C(N)=O)CSCCC3=O [BCY18221, A-(SEQ ID NO: 25)-A] (H-ACSAYCFWPFYHCA-NH2; linker 2-6-13 via TATA) | 1800
C[C@H](N)C(=O)N[C@H]1CSCCC(=O)N2CN3CN(C2)C(=O)CCSC[C@H](NC(=O)[C@H](Cc2ccc(O)cc2)NC(=O)[C@H](CC(N)=O)NC(=O)[C@H]([C@@H](C)O)NC1=O)C(=O)N[C@@H](Cc1ccccc1)C(=O)N[C@@H](Cc1c[nH]c2ccccc12)C(=O)N1CCC[C@H]1C(=O)N[C@@H](Cc1ccccc1)C(=O)N[C@@H](Cc1c[nH]c2ccccc12)C(=O)N[C@@H](CO)C(=O)N[C@H](C(=O)N[C@@H](C)C(N)=O)CSCCC3=O [BCY19769, A-(SEQ ID NO: 11)-A] (H-ACTNYCFWPFWSCA-NH2; linker 2-6-13 via TATA) | 920
C[C@H](N)C(=O)N[C@H]1CSCCC(=O)N2CN3CN(C2)C(=O)CCSC[C@H](NC(=O)[C@H](Cc2ccc(O)cc2)NC(=O)[C@H](CC(N)=O)NC(=O)[C@H]([C@@H](C)O)NC1=O)C(=O)N[C@@H](Cc1ccccc1)C(=O)N[C@@H](Cc1c[nH]c2ccccc12)C(=O)N1CCC[C@H]1C(=O)N[C@@H](Cc1ccccc1)C(=O)N[C@@H](Cc1ccc(O)cc1)C(=O)N[C@@H](CO)C(=O)N[C@H](C(=O)N[C@@H](C)C(N)=O)CSCCC3=O [BCY19781, A-(SEQ ID NO: 20)-A] (H-ACTNYCFWPFYSCA-NH2; linker 2-6-13 via TATA) | 1400
C[C@H](N)C(=O)N[C@H]1CSCCC(=O)N2CN3CN(C2)C(=O)CCSC[C@H](NC(=O)[C@H](Cc2ccc(O)cc2)NC(=O)[C@H](CCC(=O)O)NC(=O)[C@H](C)NC1=O)C(=O)N[C@@H](Cc1ccccc1)C(=O)N[C@@H](Cc1c[nH]c2ccccc12)C(=O)N1CCC[C@H]1C(=O)N[C@@H](Cc1ccccc1)C(=O)N[C@@H](Cc1ccc(O)cc1)C(=O)N[C@@H](Cc1c[nH]cn1)C(=O)N[C@H](C(=O)N[C@@H](C)C(N)=O)CSCCC3=O [BCY18220, A-(SEQ ID NO: 24)-A] (H-ACAEYCFWPFYHCA-NH2; linker 2-6-13 via TATA) | 2000
CC(=O)N[C@H]1CSCCC(=O)N2CN3CN(C2)C(=O)CCSC[C@H](NC(=O)[C@H](Cc2ccc(O)cc2)NC(=O)[C@H](CCC(=O)O)NC(=O)[C@H](CO)NC1=O)C(=O)N[C@@H](Cc1ccccc1)C(=O)N[C@@H](Cc1c[nH]c2cc(Cl)ccc12)C(=O)N1CCC[C@H]1C(=O)N[C@@H](Cc1ccccc1)C(=O)N[C@@H](Cc1ccc(O)cc1)C(=O)N[C@@H](Cc1c[nH]cn1)C(=O)N[C@H](C(N)=O)CSCCC3=O [BCY19671, Ac-(SEQ ID NO: 42)] | 1000
CC(C)[C@@H]1NC(=O)[C@H](C)NC(=O)[C@H](Cc2ccccc2)NC(=O)[C@@H]2CCCN2C(=O)[C@H](Cc2c[nH]c3ccccc23)NC(=O)[C@H](Cc2ccccc2)NC(=O)[C@@H]2CSCCC(=O)N3CN(CN(C3)C(=O)CCSC[C@@H](C(=O)N[C@@H](C)C(N)=O)NC1=O)C(=O)CCSC[C@H](NC(=O)[C@H](C)N)C(=O)N[C@@H]([C@@H](C)O)C(=O)N[C@@H](CC(N)=O)C(=O)N[C@@H](Cc1ccc(O)cc1)C(=O)N2 [BCY19783, A-(SEQ ID NO: 22)-A] (H-ACTNYCFWPFAVCA-NH2; linker 2-6-13 via TATA) | 2700
C[C@H](N)C(=O)N[C@H]1CSCCC(=O)N2CN3CN(C2)C(=O)CCSC[C@H](NC(=O)[C@H](Cc2ccc(O)cc2)NC(=O)[C@H](CC(N)=O)NC(=O)[C@H](CO)NC1=O)C(=O)N[C@@H](Cc1ccccc1)C(=O)N[C@@H](Cc1c[nH]c2ccccc12)C(=O)N1CCC[C@H]1C(=O)N[C@@H](Cc1ccccc1)C(=O)N[C@@H](Cc1c[nH]c2ccccc12)C(=O)N[C@@H](CCC(N)=O)C(=O)N[C@H](C(=O)N[C@@H](C)C(N)=O)CSCCC3=O [BCY19770, A-(SEQ ID NO: 12)-A] (H-ACSNYCFWPFWQCA-NH2; linker 2-6-13 via TATA; N-terminus and C-terminus assumed) | 1800
CC(C)C[C@@H]1NC(=O)[C@H](Cc2ccccc2)NC(=O)[C@H](Cc2ccccc2)NC(=O)[C@@H]2CCCN2C(=O)[C@H](Cc2c[nH]c3ccccc23)NC(=O)[C@H](Cc2ccccc2)NC(=O)[C@@H]2CSCCC(=O)N3CN(CN(C3)C(=O)CCSC[C@@H](C(=O)N[C@@H](C)C(N)=O)NC1=O)C(=O)CCSC[C@H](NC(=O)[C@H](C)N)C(=O)N[C@@H](CO)C(=O)N[C@@H](CCC(=O)O)C(=O)N[C@@H](Cc1ccc(O)cc1)C(=O)N2 [BCY19776, A-(SEQ ID NO: 15)-A] (H-ACSEYCFWPFFLCA-NH2; linker 2-6-13 via TATA) | 750
C[C@H](N)C(=O)N[C@H]1CSCCC(=O)N2CN3CN(C2)C(=O)CCSC[C@H](NC(=O)[C@H](Cc2ccc(O)cc2)NC(=O)[C@H](CCC(=O)O)NC(=O)[C@H](CO)NC1=O)C(=O)N[C@@H](Cc1ccccc1)C(=O)N[C@@H](Cc1c[nH]c2ccccc12)C(=O)N1CCC[C@H]1C(=O)N[C@@H](Cc1ccccc1)C(=O)N[C@@H](Cc1ccc(O)cc1)C(=O)N[C@@H](CO)C(=O)N[C@H](C(=O)N[C@@H](C)C(N)=O)CSCCC3=O [BCY17669, A-(SEQ ID NO: 2)-A] (H-ACSEYCFWPFYSCA-NH2; linker 2-6-13 via TATA) | 1200
CC(=O)N[C@H]1CSCCC(=O)N2CN3CN(C2)C(=O)CCSC[C@H](NC(=O)[C@H](Cc2ccc(O)cc2)NC(=O)[C@H](CCC(=O)O)NC(=O)[C@H](CO)NC1=O)C(=O)N[C@@H](Cc1ccccc1)C(=O)N[C@@H](Cc1cccc2ccccc12)C(=O)N1CCC[C@H]1C(=O)N[C@@H](Cc1ccccc1)C(=O)N[C@@H](Cc1ccc(O)cc1)C(=O)N[C@@H](Cc1c[nH]cn1)C(=O)N[C@H](C(N)=O)CSCCC3=O [BCY19669, Ac-(SEQ ID NO: 37)] (Ac-CSEYCF[1Nal]PFYHC-NH2; linker 1-5-12 via TATA) | 2000

same assay, conditions: Human BLI (Kd; nM) (deglycosylated), Table 4B; deglycosylated human TREM2 ECD; steady-state KD, 25° C.

SMILES | Kd [nM]
CC(=O)N[C@H]1CSCCC(=O)N2CN3CN(C2)C(=O)CCSC[C@H](NC(=O)[C@H](Cc2ccc(O)cc2)NC(=O)[C@H](CCC(=O)O)NC(=O)[C@H](CO)NC1=O)C(=O)N[C@@H](Cc1ccccc1)C(=O)N[C@@H](Cc1c[nH]c2ccccc12)C(=O)N1CCC[C@H]1C(=O)N[C@@H](Cc1ccc(-c2ccccc2)cc1)C(=O)N[C@@H](Cc1ccc(O)cc1)C(=O)N[C@@H](Cc1c[nH]cn1)C(=O)N[C@H](C(N)=O)CSCCC3=O [BCY20075, Ac-(SEQ ID NO: 71)] (Ac-CSEYCFWP[Bip]YHC-NH2; linker 1-5-12 via TATA) | 2400
CC(=O)N[C@H]1CSCCC(=O)N2CN3CN(C2)C(=O)CCSC[C@H](NC(=O)[C@H](Cc2ccc(O)cc2)NC(=O)[C@H](CCC(=O)O)NC(=O)[C@H](CO)NC1=O)C(=O)N[C@@H](Cc1ccccc1)C(=O)N[C@@H](Cc1c[nH]c2ccccc12)C(=O)N1CCC[C@H]1C(=O)N[C@@H](Cc1ccccc1)C(=O)N[C@@H](Cc1ccc(O)cc1)C(=O)N[C@@H](CCC(N)=O)C(=O)N[C@H](C(N)=O)CSCCC3=O [BCY20572, Ac-(SEQ ID NO: 98)] (Ac-CSEYCFWPFYQC-NH2; linker 1-5-12 via TATA) | 1060
CC(=O)N[C@H]1CSCCC(=O)N2CN3CN(C2)C(=O)CCSC[C@H](NC(=O)[C@H](Cc2ccc(O)cc2)NC(=O)[C@H](CCC(=O)O)NC(=O)[C@H](CO)NC1=O)C(=O)N[C@@H](Cc1ccccc1)C(=O)N[C@@H](Cc1c[nH]c2ccccc12)C(=O)N1CCC[C@H]1C(=O)N[C@@H](Cc1ccccc1)C(=O)N[C@@H](CCC(N)=O)C(=O)N[C@@H](Cc1ccc(O)cc1)C(=O)N[C@H](C(N)=O)CSCCC3=O [BCY20220, Ac-(SEQ ID NO: 23)] (Ac-CSEYCFWPFQYC-NH2; linker 1-5-12 via TATA) | 1300
CC(=O)N[C@H]1CSCCC(=O)N2CN3CN(C2)C(=O)CCSC[C@H](NC(=O)[C@H](Cc2ccc(O)cc2)NC(=O)[C@H](CCC(=O)O)NC(=O)[C@H](CO)NC1=O)C(=O)N[C@@H](Cc1cccc2ccccc12)C(=O)N[C@@H](Cc1c[nH]c2ccccc12)C(=O)N1CCC[C@H]1C(=O)N[C@@H](Cc1ccccc1)C(=O)N[C@@H](Cc1ccc(O)cc1)C(=O)N[C@@H](Cc1c[nH]cn1)C(=O)N[C@H](C(N)=O)CSCCC3=O [BCY20054, Ac-(SEQ ID NO: 49)] (Ac-CSEYC[1Nal]WPFYHC-NH2; linker 1-5-12 via TATA) | 2540
CC(=O)N[C@H]1CSCCC(=O)N2CN3CN(C2)C(=O)CCSC[C@H](NC(=O)[C@H](Cc2ccc(O)cc2)NC(=O)[C@H](CCC(=O)O)NC(=O)[C@H](CO)NC1=O)C(=O)N[C@@H](Cc1ccccc1)C(=O)N[C@@H](Cc1c[nH]c2ccccc12)C(=O)N1CCC[C@H]1C(=O)N[C@@H](Cc1ccncc1)C(=O)N[C@@H](Cc1ccc(O)cc1)C(=O)N[C@@H](Cc1c[nH]cn1)C(=O)N[C@H](C(N)=O)CSCCC3=O [BCY20569, Ac-(SEQ ID NO: 95)] (Ac-CSEYCFWP[4Pal]YHC-NH2; linker 1-5-12 via TATA) | 3800

same assay, conditions: Human BLI (Kd; nM) glycosylated, Table 4B; glycosylated human TREM2 ECD

SMILES | Kd [nM]
CC(=O)N[C@H]1CSCCC(=O)N2CN3CN(C2)C(=O)CCSC[C@H](NC(=O)[C@H](Cc2ccc(O)cc2)NC(=O)[C@H](CCC(=O)O)NC(=O)[C@H](CO)NC1=O)C(=O)N[C@@H](Cc1ccccc1)C(=O)N[C@@H](Cc1c[nH]c2ccccc12)C(=O)N1CCC[C@H]1C(=O)N[C@@H](CC(C)(C)C)C(=O)N[C@@H](Cc1ccc(O)cc1)C(=O)N[C@@H](Cc1c[nH]cn1)C(=O)N[C@H](C(N)=O)CSCCC3=O [BCY20074, Ac-(SEQ ID NO: 68)] (Ac-CSEYCFWP[tBuAla]YHC-NH2; linker 1-5-12 via TATA) | 920
CC(=O)N[C@H]1CSCCC(=O)N2CN3CN(C2)C(=O)CCSC[C@H](NC(=O)[C@H](Cc2ccc(O)cc2)NC(=O)[C@H](CCC(=O)O)NC(=O)[C@H](CO)NC1=O)C(=O)N[C@@H](Cc1cccc2ccccc12)C(=O)N[C@@H](Cc1c[nH]c2ccccc12)C(=O)N1CCC[C@H]1C(=O)N[C@@H](Cc1ccccc1)C(=O)N[C@@H](Cc1ccc(O)cc1)C(=O)N[C@@H](Cc1c[nH]cn1)C(=O)N[C@H](C(N)=O)CSCCC3=O [BCY20054, Ac-(SEQ ID NO: 49)] (Ac-CSEYC[1Nal]WPFYHC-NH2; linker 1-5-12 via TATA) | 1830
CC(=O)N[C@H]1CSCCC(=O)N2CN3CN(C2)C(=O)CCSC[C@H](NC(=O)[C@H](Cc2ccc(O)cc2)NC(=O)[C@H](CCC(=O)O)NC(=O)[C@H](CO)NC1=O)C(=O)N[C@@H](Cc1ccccc1)C(=O)N[C@@H](Cc1c[nH]c2ccccc12)C(=O)N1CCC[C@H]1C(=O)N[C@@H](Cc1ccccc1)C(=O)N[C@@H](Cc1c[nH]c2ccccc12)C(=O)N[C@@H](Cc1c[nH]cn1)C(=O)N[C@H](C(N)=O)CSCCC3=O [BCY20077, Ac-(SEQ ID NO: 73)] (Ac-CSEYCFWPFWHC-NH2; linker 1-5-12 via TATA) | 750
